In patent US20100256333A1, “Peptide-Based Beta Turn Mimetics” (UNIVERSITY OF MANITOBA, priority 2009, published 2010):
Values joined by “and” are separate entries in the source; they are usually repeats but may differ in a detail not shown here. Equal entries are not always repeated. Where a SMILES comes first, the peptide text is derived from it. [ ]: non-standard residue; d: D form.

How the values were obtained:
[1] = in CD2Cl2; cited from earlier work
[2] = Prolyl amide cis/trans equilibrium of tetrapeptides by NMR in various solvents; format: physicochemical
Experimental: Conformational analysis of tetrapeptides 2-11 to 2-13 and 2-16 using NMR. […] The lower tendency of aggregation of glycosylated peptides has previously been reported (runkel et al., 1998). The NMR spectra of all tetrapeptides were measured at the same concentration (8 mM). Intramolecular hydrogen bonding was evaluated by temperature coefficient experiments in DMSO-d6 or H2O/D2O (9/1). Because exchangeable protons engaged in intramolecular hydrogen bonds are typically not influenced by strong hydrogen-bonding solvents (Kopple et al., 1969). The prolyl N-terminal geometry and turn structure were investigated by ROESY experiments (Misicka et al., 1998).
Solvent effects. In addition, the influence of different solvents on the geometry of prolyl N-terminus was studied (Table 14). […] In contrast, peptide 2-12 and reference peptide 2-16 display a solvent effect.

[3] = Prolyl amide trans/cis ratio by 1H-NMR integration (peptide mimics 3-8); format: physicochemical; conditions: for Experimental distribution of cis conformers / Experimental distribution of trans conformers / Cis population of prolyl N-acetyl N′-methylamides: in D2O; for Experimental distribution of cis conformers / Experimental distribution of trans conformers: 1H-NMR integration; for Trans/cis ratio Kt/c / cis % isomer: in water, 500 MHz NMR at 25 °C; for Trans/cis ratio Kt/c: ±0.04; for cis % isomer / Cis population of prolyl N-acetyl N′-methylamides: ±3%
Experimental: For each compound 3-6, the ratio of trans/cis isomers was calculated by integrating and averaging as many well-resolved proton signals as possible in the ^1H-NMR spectra (Table 2) (taylor et al., 2003).
The cis population of peptide mimics 7 and 8 are presented in Table 3 together with previously published data for proline analog 9 (Beausoleil and Lubell, 1996), 5-methylproline analogs 10 and 11 (Delaney and Madison, 1982) and 5-tent-butylproline analogs 12 and 13 (Beausoleil and Lubell, 1996).
(§1) Thermodynamics. The equilibrium constants for the interconversion of the cis and trans isomers of 3-6 were determined by measuring the peak area of the 1H resonance for the two isomers. Peak areas were measured with the program Spinworks 2.5. Experiments were conducted at 298-360 K. Equilibrium constants (Kt/c=trans/cis ratios) were calculated directly from the peak areas.

[4] = Kinetics of prolyl amide cis/trans isomerization by 1H-NMR inversion-magnetization transfer, Eyring plots; format: physicochemical; conditions: for Free energy of activation ΔG‡ cis to trans / Free energy of activation ΔG‡ trans to cis: at 298K, D2O; for Rate constant ktc (trans to cis): calculated from kct and Kt/c
Experimental: Kinetics of cis-trans prolyl amide bond isomerization in peptide mimics 3-6. The kinetics of cis/trans isomerization for compounds 3-6 were determined by ^1H-NMR spectroscopy inversion-magnetization transfer experiments (Perrin and Dwyer, 1990; Reimer et al., 1998) in D2O (Table 4). Because the rates for cis/trans isomerization are extremely slow in protic solvents, the inventors performed these experiments at elevated temperatures (Stein, 1993). At 83° C., the trans-to-cis rate constants of isomerizations (ktc) follows the order 4<5≈6<3. A 200-fold rate difference is observed for diastereomeric amides 3 and 4.
The effects of temperature on kct and ktc were analyzed by Eyring plots (FIG. 6) (Eyring, 1935). The values for ΔH^‡ and ΔS^‡ (Table 5) were calculated from linear least squares fits of the data in these plots (Eyring, 1935). […] However, the activation enthalpy is partially compensated by a higher activation entropy.
Inversion-magnetization transfer NMR experiments were performed on Bruker AMX500 spectrometer equipped with selective excitation units, and ^1H and broadband heteronuclear probes. Samples of 3-6 were prepared at a concentration of 0.01 M in D2O. The rate of prolyl peptide bond isomerization can not be detected by this method at room temperature. Experiments were therefore conducted at elevated temperature at 356 K. Temperature settings of the spectrometer were calibrated to within 1° C. by reference to a glycol standard.

[5] = Thermodynamics of isomerization, Kt/c versus temperature, Van't Hoff plots; format: physicochemical; conditions: D2O; for ΔG° (298K) of isomerization: in kcal/mol; for ΔH° of isomerization / ΔS° of isomerization: Van't Hoff plots
Experimental: Thermodynamics The effects of temperature on the values Kt/c=(kct/ktc) for each compound were measured directly by NMR spectroscopy over the temperature range 25-93° C. The resulting data were analyzed by Van't Hoff plots (FIG. 7). […] In this case the major cis isomer becomes increasingly favored as the temperature decreases. Values for ΔH^o and ΔS^o were calculated from linear least-squares fits of these plots (Table 6).
as §1

[6] = Cis population and equilibrium constant Kc/t of GlcTProLysC peptide mimics by 1H NMR, pH effect; format: physicochemical; conditions: HCl salt; for Equilibrium constant Kc/t / Cis population: in D2O; for Equilibrium constant Kc/t: ±0.04; for Cis population: ±3%; for Kc/t: D2O
Experimental: The equilibrium constants Kc/t for compounds 3-22 to 3-25 are shown in Table 15 and were determined by integrating and averaging as many distinct proton signals as possible for both the major and minor isomers in the ^1H NMR spectra (Taylor et al., 2003). […] It appears that the stereochemistry at C-5′ has a profound effect on the equilibrium of isomerization. Also, the cis prolyl amide population in esters 3-22 and 3-23, was generally lower than N′-methylamides 3-24 and 3-25. Taylor and co-workers have proposed that the trans conformation of esters is stabilized relative to amides as a result of increased electron donation from the oxygen lone pair of the N-terminal amide carbonyl group to the antibonding orbital of the prolyl C-terminal carbonyl group (FIG. 20) (Taylor et al., 2003).
Effect of pH. Since compound 3-22 to 3-25 have an ionizable amino group, the inventors were interested to study the influence of the ionization state on Kt/c. […] The inventors selected three buffer ranges: pH=2.6, 7.4 and 12.4, to examine the pH effect on the isomerization of 3-24 and 3-25 (Table 16).
Measurement of equilibrium constant: The calculation was based on the integration of well-resolved peaks of the γ-protons, N-terminal methyl group and α-proton in ^1H NMR.

| Structure (SMILES) | Equilibrium constant Kc/t [6] | Cis population [6] [%] | Trans/cis ratio Kt/c [3] | cis % isomer [3] [%] | Rate constant kct (cis to trans) ([4]; D2O at 83 °C) [s⁻¹] | Activation enthalpy ΔH‡ cis to trans ([4]; Eyring plots in D2O) [kJ/mol] | Activation enthalpy ΔH‡ trans to cis ([4]; Eyring plots in D2O) [kJ/mol] | Activation entropy ΔS‡ cis to trans ([4]; Eyring plots in D2O) [cal/mol.K] | Activation entropy ΔS‡ trans to cis ([4]; Eyring plots in D2O) [cal/mol.K] | Free energy of activation ΔG‡ cis to trans [4] [kJ/mol] | Free energy of activation ΔG‡ trans to cis [4] [kJ/mol] | Rate constant ktc (trans to cis) ([4]; D2O at 83 °C) [s⁻¹] | ΔG° (298K) of isomerization [5] | ΔH° of isomerization [5] [kJ/mol] | ΔS° of isomerization [5] [cal/mol•K] | other results |
| --- | --- | --- | --- | --- | --- | --- | --- | --- | --- | --- | --- | --- | --- | --- | --- | --- |
| CC(=O)N[C@@H](CC(C)C)C(=O)N[C@H](Cc1ccccc1)C(=O)N1CCC[C@H]1C(=O)N[C@H](C(=O)N(C)C)C(C)C [Compound 2-16, Ac-Leu-D-Phe-Pro-Val-NMe2] (Ac-L[dF]PV-NMe2) | – | – | – | – | – | – | – | – | – | – | – | – | – | – | – | Concentration at which peptide aggregated [1]: ≥ 10000 µM; Equilibrium constant Kt/c ([2]; CD2Cl2, 500 MHz NMR at 25° C.): 19.00; Equilibrium constant Kt/c ([2]; CD3OD, 500 MHz NMR at 25° C.): 3.17; Equilibrium constant Kt/c ([2]; DMSO-d6, 500 MHz NMR at 25° C.): 1.32 |
| COC(=O)C1N(C(C)=O)C(CO)CC12OC(CO)C(O)C(O)C2O [Compound 3, (1S)-2,3,4,6-Tetrahydroxy-1′-N-acetyl-5′(S)-hydroxymethylene-spiro[1,5-anhydro-D-glucitol-1,3′-L-prolinemethyl ester]] | – | – | 3.35 | 23 | 0.18 ± 0.01 | 109 | 110 | 11.1 | 10.2 | 95.4 | 97.9 | 0.08 ± 0.004 | −0.80 ± 0.13 | -6.99 ± 0.25 | −2.93 ± 0.20 | Experimental distribution of cis conformers [3]: 23±3%; Experimental distribution of trans conformers [3]: 77 ± 3%; Increase in activation enthalpy compared to compounds 4-6 ([4]; Eyring plots in D2O): 16.3 to 28.5 kJ/mol |
| COC(=O)C1N(C(C)=O)C(CO)CC12OC(CO)C(O)C(O)C2O [Compound 4, (1S)-2,3,4,6-Tetrahydroxy-1′-N-acetyl-5′(R)-hydroxymethylene-spiro[1,5-anhydro-D-glucitol-1,3′-L-prolinemethyl ester]] | – | – | 0.88 | 53 | 16.19 ± 1.19 | 82.8 | 82 | 2.2 | 1.9 | 79.9 | 79.5 | 19.82 ± 1.45 | 0.19 ± 0.11 | 2.09 ± 0.25 | 1.05 ± 0.16 | Experimental distribution of cis conformers [3]: 53±3%; Experimental distribution of trans conformers [3]: 47 ± 3%; Rate acceleration for kct compared to parent compounds 5 and 6 ([4]; D2O at 83 °C): ~6 fold; Rate acceleration for ktc compared to parent compounds 5 and 6 ([4]; D2O at 83 °C): ~20 fold |
| COC(=O)[C@@H]1[C@@H](O)CCN1C(C)=O [Compound 5, N-acetyl-3(S)-hydroxy-L-proline methyl ester, reference compound] | – | – | 4.88 | 17 | 2.63 ± 0.28 | 90.4 | 90 | 3.6 | 1.6 | 85.8 | 88.3 | 1.02 ± 0.09 | −0.95 ± 0.05 | -4.56 ± 0.13 | −0.48 ± 0.08 | – |
| COC(=O)[C@@H]1CCCN1C(C)=O [Compound 6, N-acetyl-L-proline methyl ester, reference compound] | – | – | 6.14 | 14 | 2.95 ± 0.12 | 91.6 | 94.1 | 4.8 | 3.9 | 85.8 | 89.5 | 0.82 ± 0.04 | −1.01 ± 0.08 | -5.06 ± 0.17 | −0.71 ± 0.12 | – |
| CNC(=O)C1N(C(C)=O)C(CO)CC12OC(CO)C(O)C(O)C2O [Compound 7, (1S)-2,3,4,6-Tetrahydroxy-1′-N-acetyl-5′(S)-hydroxymethylene-spiro[1,5-anhydro-D-glucitol-1,3′-L-prolinemethylamide]] | – | – | – | – | – | – | – | – | – | – | – | – | – | – | – | Cis population of prolyl N-acetyl N′-methylamides [3]: 38% and 38±3% |
| CNC(=O)C1N(C(C)=O)C(CO)CC12OC(CO)C(O)C(O)C2O [Compound 8, (1S)-2,3,4,6-tetrahydroxy-1′-N-acetyl-5′(R)-hydroxymethylene-spiro[1,5-anhydro-D-glucitol-1,3′-L-prolinemethylamide]] | – | – | – | – | – | – | – | – | – | – | – | – | – | – | – | Cis population of prolyl N-acetyl N′-methylamides [3]: 74% and 74±3% |

Second part, led by results:

| Equilibrium constant Kc/t [6] | Cis population [6] [%] | Structure (SMILES) | Trans/cis ratio Kt/c [3] | cis % isomer [3] [%] | Rate constant kct (cis to trans) ([4]; D2O at 83 °C) [s⁻¹] | Activation enthalpy ΔH‡ cis to trans ([4]; Eyring plots in D2O) [kJ/mol] | Activation enthalpy ΔH‡ trans to cis ([4]; Eyring plots in D2O) [kJ/mol] | Activation entropy ΔS‡ cis to trans ([4]; Eyring plots in D2O) [cal/mol.K] | Activation entropy ΔS‡ trans to cis ([4]; Eyring plots in D2O) [cal/mol.K] | Free energy of activation ΔG‡ cis to trans [4] [kJ/mol] | Free energy of activation ΔG‡ trans to cis [4] [kJ/mol] | Rate constant ktc (trans to cis) ([4]; D2O at 83 °C) [s⁻¹] | ΔG° (298K) of isomerization [5] | ΔH° of isomerization [5] [kJ/mol] | ΔS° of isomerization [5] [cal/mol•K] | other results |
| --- | --- | --- | --- | --- | --- | --- | --- | --- | --- | --- | --- | --- | --- | --- | --- | --- |
| 1.22 | 55 | COC(=O)C1N(C(C)=O)C(CO)CC12OC(CN)C(O)C(O)C2O.Cl [Compound 3-22, (1S)-6-Amino-6-deoxy-1′-N-acetyl-5′(R)-hydroxymethylene-spiro[1,5-anhydro-D-glucitol-1,3′-L-prolinemethyl ester] HCl salt] | – | – | – | – | – | – | – | – | – | – | – | – | – | – |
| 0.23 | 19 | COC(=O)C1N(C(C)=O)C(CO)CC12OC(CN)C(O)C(O)C2O.Cl [Compound 3-23, (1S)-6-Amino-6-deoxy-1′-N-acetyl-5′(S)-hydroxymethylene-spiro[1,5-anhydro-D-glucitol-1,3′-L-prolinemethyl ester] HCl salt] | – | – | – | – | – | – | – | – | – | – | – | – | – | – |
| 3.03 | 75 | CNC(=O)C1N(C(C)=O)C(CO)CC12OC(CN)C(O)C(O)C2O.Cl [Compound 3-24, (1S)-6-Amino-6-deoxy-1′-N-acetyl-5′(R)-hydroxymethylene-spiro[1,5-anhydro-D-glucitol-1,3′-L-prolinemethyl amide] HCl salt] | – | – | – | – | – | – | – | – | – | – | – | – | – | Kc/t ([6]; pD 2.6, ±0.04): 3.03; Kc/t ([6]; pD 7.4, ±0.04): 3.03; Kc/t ([6]; pD 12.4, ±0.04): 2.70 |
| 0.56 | 36 | CNC(=O)C1N(C(C)=O)C(CO)CC12OC(CN)C(O)C(O)C2O.Cl [Compound 3-25, (1S)-6-Amino-6-deoxy-1′-N-acetyl-5′(S)-hydroxymethylene-spiro[1,5-anhydro-D-glucitol-1,3′-L-prolinemethyl amide] HCl salt] | – | – | – | – | – | – | – | – | – | – | – | – | – | Kc/t ([6]; pD 2.6, ±0.04): 0.61; Kc/t ([6]; pD 7.4, ±0.04): 0.56; Kc/t ([6]; pD 12.4, ±0.04): 0.61 |
